Laboratory results: patent US20240150368A1, “ULK INHIBITORS AND METHODS OF USE THEREOF” (Deciphera Pharmaceuticals, LLC, priority 2022, published 2024)

Legend:
ULK1 kinase = target: T1, ULK1 kinase (Homo sapiens, UniProt O75385, E37A/K38A); test: Biochemical assay for ULK1 (coupled pyruvate kinase/lactate dehydrogenase assay); conditions: 1 mM ATP, 0.1 nM ULK1; read-out: ULK1 (inhibition of biochemical activity), IC50
T1 construct: (residues 1-283; ID NO: 1); purchased Beryllium
T1 sequence (O75385 1-283 E37A/K38A): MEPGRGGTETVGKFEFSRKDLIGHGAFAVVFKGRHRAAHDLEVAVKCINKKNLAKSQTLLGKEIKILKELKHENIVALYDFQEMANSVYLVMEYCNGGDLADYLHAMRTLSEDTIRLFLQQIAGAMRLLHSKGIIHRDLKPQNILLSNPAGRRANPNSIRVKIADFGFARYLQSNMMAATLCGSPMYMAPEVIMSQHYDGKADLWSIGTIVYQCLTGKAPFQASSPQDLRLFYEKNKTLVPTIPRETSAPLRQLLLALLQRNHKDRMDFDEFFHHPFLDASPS
Experimental: Biochemical Assay for ULK1 (SEQ. ID NO: 1)
Activity of ULK1 kinase was determined spectroscopically using a coupled pyruvate kinase/lactate dehydrogenase assay that continuously monitors the ATP hydrolysis-dependent oxidation of NADH (e.g., Schindler et al. Science (2000) 289: 1938-1942). Assays were conducted in 384-well plates (100 μL final volume) using 0.1 nM ULK1 (from Beryllium), 0.075 mM peptide substrate (YANWLAASIYLDGKKK), 1.5 units pyruvate kinase, 2.1 units lactate dehydrogenase, 1 mM phosphoenol pyruvate, 0.28 mM NADH and 1 mM ATP in assay buffer (100 mM Tris, pH 7.5, 15 mM MgCl2, 0.5 mM DTT, 0.004% (w/v) BSA, and 0.004% Triton X-100). Inhibition of ULK1 was measured by adding serial diluted test compound (final assay concentration of 1% DMSO). A decrease in absorption at 340 nm was monitored continuously for 6 h at 30° C. on a multi-mode microplate reader (BioTek). The reaction rate was calculated using the 2-3 h time frame. The reaction rate at each concentration of compound was converted to percent inhibition using controls (i.e., reaction with no test compound and reaction with a known inhibitor) and IC50 values were calculated using software routines in Prism (GraphPad software).

ULK2 kinase = target: T2, ULK2 kinase (Homo sapiens, UniProt Q8IYT8); test: Biochemical assay for ULK2 (coupled pyruvate kinase/lactate dehydrogenase assay); conditions: 1 mM ATP, 1 nM ULK2; read-out: ULK2 (inhibition of biochemical activity), IC50
T2 construct: (residues 1-306 with N-terminal GST and His tag; ID NO: 2); purchased Signal Chem U02-11G
T2 sequence (Q8IYT8 with tags, fused parts or gaps): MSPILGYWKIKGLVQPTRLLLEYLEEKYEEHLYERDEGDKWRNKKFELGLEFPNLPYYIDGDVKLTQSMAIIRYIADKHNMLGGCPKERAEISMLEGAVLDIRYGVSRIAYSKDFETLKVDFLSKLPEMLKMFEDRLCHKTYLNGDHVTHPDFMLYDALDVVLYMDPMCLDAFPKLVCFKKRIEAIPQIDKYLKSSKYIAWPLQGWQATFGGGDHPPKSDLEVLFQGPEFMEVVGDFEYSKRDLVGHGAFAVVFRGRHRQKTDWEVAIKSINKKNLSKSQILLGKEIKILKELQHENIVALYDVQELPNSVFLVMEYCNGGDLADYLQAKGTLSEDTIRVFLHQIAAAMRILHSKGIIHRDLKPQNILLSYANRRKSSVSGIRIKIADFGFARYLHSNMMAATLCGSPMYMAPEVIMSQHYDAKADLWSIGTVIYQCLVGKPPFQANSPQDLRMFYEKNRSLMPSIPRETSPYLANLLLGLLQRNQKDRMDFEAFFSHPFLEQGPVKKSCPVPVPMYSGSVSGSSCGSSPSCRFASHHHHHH
Experimental: Biochemical Assay for ULK2 (SEQ. ID NO: 2)
Activity of ULK2 kinase was determined spectroscopically using a coupled pyruvate kinase/lactate dehydrogenase assay that continuously monitors the ATP hydrolysis-dependent oxidation of NADH (e.g., Schindler et al. Science (2000) 289: 1938-1942). Assays were conducted in 384-well plates (100 μL final volume) using 1 nM ULK2 (Signal Chem U02-11G), 200 μM ULKtide, 1.5 units pyruvate kinase, 2.1 units lactate dehydrogenase, 1 mM phosphoenol pyruvate, 0.28 mM NADH and 1 mM ATP in assay buffer (100 mM Tris, pH 7.5, 15 mM MgCl2, 0.5 mM DTT, 0.1% octyl-glucoside, 0.002% (w/v) BSA, and 0.002% Triton X-100). Inhibition of ULK2 was measured by adding serial diluted test compound (final assay concentration of 1% DMSO). A decrease in absorption at 340 nm was monitored continuously for 6 h at 30° C. on a multi-mode microplate reader (BioTek). The reaction rate was calculated using the 2-3 h time frame. The reaction rate at each concentration of compound was converted to percent inhibition using controls (i.e., reaction with no test compound and reaction with a known inhibitor) and IC50 values were calculated by fitting a four-parameter sigmoidal curve to the data using Prism (GraphPad software).

Row | IC50 (ULK1 kinase) | IC50 (ULK2 kinase) | SMILES
1 | 100 to 500 nM | – | CC/C(Nc1ccc(N2CCN(C)CC2)cc1)=C1/C(=O)Nc2ccc(C(=O)NOC)cc21 [Example 10]
2 | 100 to 500 nM | – | CC/C(Nc1cnn(C2CCN(C(C)C)CC2)c1)=C1/C(=O)Nc2ccc(C(=O)N3CCCO3)cc21 [Example 12]
3 | 100 to 500 nM | – | CC/C(Nc1cnn(C2CCN(C(C)C)CC2)c1)=C1/C(=O)Nc2ccc(C(=O)NC)cc21 [Example 13]
4 | 100 to 500 nM | – | CCNC(=O)c1ccc2c(c1)/C(=C(\CC)Nc1cnn(C3CCN(C(C)C)CC3)c1)C(=O)N2 [Example 14]
5 | 10 to 100 nM | 100 to 500 nM | CC/C(Nc1cnn(C2CCN(C(C)C)CC2)c1)=C1/C(=O)Nc2ccc(C(=O)NC(C)C)cc21 [Example 17]
6 | 10 to 100 nM | – | CC/C(Nc1cnn(C2CCN(C(C)C)CC2)c1)=C1/C(=O)Nc2ccc(C(=O)NCC3COC3)cc21 [Example 18]
7 | 10 to 100 nM | 10 to 100 nM | CC/C(Nc1cnn(C2CCN(C(C)C)CC2)c1)=C1/C(=O)Nc2ccc(C(=O)NC[C@@H]3CCCO3)cc21 [Example 19]
8 | > 500 nM | – | CC/C(Nc1cnn(C2CCN(C(C)C)CC2)c1)=C1/C(=O)Nc2ccc(C(=O)N3CCOCC3)cc21 [Example 20]
9 | 10 to 100 nM | – | CC/C(Nc1cnn(C2CCN(C(C)C)CC2)c1)=C1/C(=O)Nc2ccc(C(=O)NOC)cc21 [Example 22]
10 | 10 to 100 nM | – | COCCNC(=O)c1ccc2c(c1)/C(=C(\C)Nc1cnn(C3CCN(C(C)C)CC3)c1)C(=O)N2 [Example 23]
11 | 100 to 500 nM | > 500 nM | CC/C(Nc1cnn(C2CCN(C(C)C)CC2)c1)=C1/C(=O)Nc2ccc(C(=O)NC3COC3)cc21 [Example 25]
12 | ≤ 10 nM | – | C/C(Nc1cnn(C2CCN(C(C)C)CC2)c1)=C1/C(=O)Nc2ccc(C(=O)NC[C@H]3CCCO3)cc21 [Example 45]
13 | 100 to 500 nM | – | CC/C(Nc1cnn(C2CCN(C(C)C)CC2)c1)=C1/C(=O)Nc2ccc(C(=O)NCCc3cnn(C)c3)cc21 [Example 49]
14 | 100 to 500 nM | – | CC/C(Nc1cnn(C2CCN(C(C)C)CC2)c1)=C1/C(=O)Nc2ccc(C(=O)NCc3cnn(C)c3)cc21 [Example 50]
15 | 10 to 100 nM | 100 to 500 nM | CC/C(Nc1cnn(C2CCN(C(C)C)CC2)c1)=C1/C(=O)Nc2ccc(C(=O)NCC3(C)CCCO3)cc21 (stereo not drawn) [Example 56]
16 | 100 to 500 nM | – | CC/C(Nc1cnn(C2CCN(C(C)C)CC2)c1)=C1/C(=O)Nc2ccc(C(=O)NCC(=O)N3CCCC3)cc21 [Example 57]
17 | 100 to 500 nM | – | CC/C(Nc1cnn(C2CCN(C(C)C)CC2)c1)=C1/C(=O)Nc2ccc(C(=O)NCCC(=O)N(C)C)cc21 [Example 59]
18 | > 500 nM | – | CC/C(Nc1cnn(C2CCN(C(C)C)CC2)c1)=C1/C(=O)Nc2ccc(C(=O)N3CCCC3)cc21 [Example 81]
19 | ≤ 10 nM | 10 to 100 nM | CC/C(Nc1cnn(C2CNC2)c1)=C1/C(=O)Nc2ccc(C(=O)NC[C@H]3CCCO3)cc21 [Example 96]
20 | 100 to 500 nM | 10 to 100 nM | CC/C(Nc1cc(C(C)C)ccn1)=C1/C(=O)Nc2ccc(C(=O)NCC(F)(F)F)cc21 [Example 97]
21 | 100 to 500 nM | > 500 nM | CC/C(Nc1ccn(C(C)C)n1)=C1/C(=O)Nc2ccc(C(=O)NCC(F)(F)F)cc21 [Example 99]
22 | 10 to 100 nM | 100 to 500 nM | CC/C(Nc1cnn(C(C)C)n1)=C1/C(=O)Nc2ccc(C(=O)NCC(F)(F)F)cc21 [Example 110]
23 | 100 to 500 nM | 100 to 500 nM | CC/C(Nc1ccc(C(C)C)nc1)=C1/C(=O)Nc2ccc(C(=O)NCC(F)(F)F)cc21 [Example 111]
24 | > 500 nM | > 500 nM | CC/C(Nc1cn(C)nc1C)=C1/C(=O)Nc2ccc(C(=O)NCC(F)(F)F)cc21 [Example 115]
25 | 10 to 100 nM | 100 to 500 nM | CC/C(Nc1cnn(C(C)C)c1)=C1/C(=O)Nc2ccc(C(=O)N[C@@H](C)C(F)(F)F)cc21 [Example 120]
